# Source: PubChem BioAssay AID248 (DTP/NCI, 2004)
# Toxic doses and inconclusive results are not listed.
# Test system: L1210 leukemia ip in BDF1 mice, survival T/C
# Test: NCI In Vivo Anticancer Drug Screen. Data for tumor model L1210 Leukemia (intraperitoneal) in B6D2F1 (BDF1) mice
# Details: endpoint: mean survival time, higher = longer survival
# How it was run: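 Transplanted-tumor mice were given test agent; controls received vehicle only. Survival readings from the two groups were divided (treated over control).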
# [1] = dose: 100.0 mg/kg/injection, schedule: Q04DX003 (ip), vehicle: saline
# [2] = dose: 200.0 mg/kg/injection, schedule: Q04DX002 (ip), vehicle: saline with Tween-80
# [3] = dose: 200.0 mg/kg/injection, schedule: Q04DX003 (ip), vehicle: saline
# [4] = dose: 400.0 mg/kg/injection, schedule: Q04DX003 (ip), vehicle: saline
# [5] = dose: 100.0 mg/kg/injection, schedule: Q04DX002 (ip), vehicle: saline with Tween-80
smiles,measurement,setting,value
COc1cc(N2CCOCC2)ccc1N,T/C,"dose: 25.0 mg/kg/injection, schedule: Q01DX009 (ip), vehicle: saline",89 % of control
same,T/C,"dose: 25.0 mg/kg/injection, schedule: Q04DX003 (ip), vehicle: saline",100 % of control
same,T/C,"dose: 50.0 mg/kg/injection, schedule: Q01DX009 (ip), vehicle: saline",95 % of control
same,T/C,"dose: 50.0 mg/kg/injection, schedule: Q04DX003 (ip), vehicle: saline",101 % of control
same,T/C,[1],103 % of control
O=C(C#Cc1ccccc1)N1CCCCC1,T/C,[2],98 % of control
same,T/C,"dose: 400.0 mg/kg/injection, schedule: Q04DX002 (ip), vehicle: saline with Tween-80",101 % of control
Cc1ccc(S(=O)(=O)NCN2C(=O)c3ccccc3C2=O)cc1,T/C,"dose: 100.0 mg/kg/injection, schedule: Q01DX001 (ip), vehicle: acetone",98 % of control
same,T/C,"dose: 100.0 mg/kg/injection, schedule: Q01DX009 (ip), vehicle: saline with Tween-80",93 % of control
same,T/C,[1],94 % of control
same,T/C,"dose: 200.0 mg/kg/injection, schedule: Q01DX001 (ip), vehicle: acetone",93 % of control
same,T/C,"dose: 200.0 mg/kg/injection, schedule: Q01DX009 (ip), vehicle: saline with Tween-80",98 % of control
same,T/C,[3],97 % of control
same,T/C,"dose: 400.0 mg/kg/injection, schedule: Q01DX001 (ip), vehicle: acetone",95 % of control
same,T/C,"dose: 400.0 mg/kg/injection, schedule: Q01DX009 (ip), vehicle: saline with Tween-80",97 % of control
same,T/C,[4],99 % of control
CCN=C(N)c1ccc(N=C(N)c2ccc(C(N)=Nc3ccc(C(N)=NCC)cc3)cc2)cc1,T/C,"dose: 7.5 mg/kg/injection, schedule: Q01DX Z (oral), vehicle: saline",98 % of control
same,T/C,"dose: 15.0 mg/kg/injection, schedule: Q01DX Z (ip), vehicle: saline",258 % of control
same,T/C,"dose: 15.0 mg/kg/injection, schedule: Q01DX Z (oral), vehicle: saline",100 % of control
same,T/C,"dose: 30.0 mg/kg/injection, schedule: Q01DX Z (oral), vehicle: saline",102 % of control
same,T/C,"dose: 60.0 mg/kg/injection, schedule: Q01DX Z (oral), vehicle: saline",102 % of control
same,T/C,"dose: 125.0 mg/kg/injection, schedule: Q## X010 (oral), vehicle: saline",103 % of control
same,T/C,"dose: 150.0 mg/kg/injection, schedule: Q01DX Z (oral), vehicle: saline",89 % of control
same,T/C,"dose: 250.0 mg/kg/injection, schedule: Q## X010 (oral), vehicle: saline",195 % of control
Cc1cc(-c2cc(C)c(O)c(C(C)(C)C)c2)cc(C(C)(C)C)c1O,T/C,"dose: 25.0 mg/kg/injection, schedule: Q04DX002 (ip), vehicle: gum acacia",95 % of control
same,T/C,"dose: 50.0 mg/kg/injection, schedule: Q04DX002 (ip), vehicle: gum acacia",95 % of control
same,T/C,"dose: 100.0 mg/kg/injection, schedule: Q04DX002 (ip), vehicle: gum acacia",91 % of control
c1ccc2cc(C3OCC4(CCCC4)CO3)ccc2c1,T/C,"dose: 100.0 mg/kg/injection, schedule: Q04DX002 (ip), vehicle: Klucel (hydroxypropylcellulose) (HPC)",103 % of control
same,T/C,"dose: 200.0 mg/kg/injection, schedule: Q04DX002 (ip), vehicle: Klucel (hydroxypropylcellulose) (HPC)",95 % of control
same,T/C,"dose: 400.0 mg/kg/injection, schedule: Q04DX002 (ip), vehicle: Klucel (hydroxypropylcellulose) (HPC)",103 % of control
c1ccc2c(c1)[nH]c1nc3ncncc3nc12,T/C,[1],94 % of control
same,T/C,[3],88 % of control
same,T/C,[4],97 % of control
CCSc1ccc2c(cc1=O)C(NC(=O)NC)CCc1cc(OC)c(OC)c(OC)c1-2 (configuration not stated),T/C,"dose: 25.0 mg/kg/injection, schedule: Q01DX009 (ip), vehicle: Klucel (hydroxypropylcellulose) (HPC)",116 % of control
same,T/C,"dose: 50.0 mg/kg/injection, schedule: Q01DX009 (ip), vehicle: Klucel (hydroxypropylcellulose) (HPC)",112 % of control
same,T/C,"dose: 100.0 mg/kg/injection, schedule: Q01DX009 (ip), vehicle: Klucel (hydroxypropylcellulose) (HPC)",92 % of control
O=C(NNC(=O)C1C2CCCCC21)C1C2CCCCC21 (configuration not stated),T/C,"dose: 100.0 mg/kg/injection, schedule: Q04DX003 (ip), vehicle: acetone",105 % of control
same,T/C,"dose: 200.0 mg/kg/injection, schedule: Q04DX003 (ip), vehicle: acetone",91 % of control
same,T/C,"dose: 400.0 mg/kg/injection, schedule: Q04DX003 (ip), vehicle: acetone",97 % of control
CN(C)CCCOS(C)(=O)=O,T/C,[5],105 % of control
same,T/C,[2],99 % of control
NC(CSSCC(N)=NCC12CC3CC(CC(C3)C1)C2)=NCC12CC3CC(CC(C3)C1)C2,T/C,[5],97 % of control
same,T/C,[2],105 % of control
O=C([O][Sb]([O]C(=O)C(F)(F)F)([c]1ccccc1)([c]1ccccc1)[c]1ccccc1)C(F)(F)F,T/C,"dose: 100.0 mg/kg/injection, schedule: Q01DX001 (ip), vehicle: saline with Tween-80",99 % of control
same,T/C,"dose: 200.0 mg/kg/injection, schedule: Q01DX001 (ip), vehicle: saline with Tween-80",92 % of control
C=C(C)[P+](C)(c1ccccc1)c1ccccc1,T/C,"dose: 2.5 mg/kg/injection, schedule: Q01DX001 (ip), vehicle: saline",102 % of control
same,T/C,"dose: 5.0 mg/kg/injection, schedule: Q01DX001 (ip), vehicle: saline",105 % of control
